The NIST ThermoML archive (doi:10.1016/j.jct.2016.06.001)

Conditions: Liquid, Frequency=8 MHz, Pulse-echo method

CC(O)CO (configuration not stated) [1,2-propanediol]
Conditions	speed of sound [m/s]
303.15 K, 99 kPa	1494.4
303.15 K, 5091 kPa	1513.5
303.15 K, 10060 kPa	1532
303.15 K, 15098 kPa	1550.2
303.15 K, 20084 kPa	1567.7
303.15 K, 25068 kPa	1584.7
303.15 K, 30167 kPa	1601.6
313.15 K, 99 kPa	1465.9
313.15 K, 5014 kPa	1485.5
313.15 K, 10053 kPa	1504.8
313.15 K, 15011 kPa	1523.2
313.15 K, 20095 kPa	1541.5
313.15 K, 25202 kPa	1559.4
313.15 K, 30222 kPa	1576.5
333.15 K, 100 kPa	1408.9
333.15 K, 5039 kPa	1429.7
333.15 K, 10054 kPa	1450.1
333.15 K, 15107 kPa	1469.8
333.15 K, 20131 kPa	1489
333.15 K, 25131 kPa	1507.4
333.15 K, 30024 kPa	1524.9
353.15 K, 99 kPa	1350.9
353.15 K, 5042 kPa	1373
353.15 K, 10055 kPa	1394.6
353.15 K, 15135 kPa	1415.6
353.15 K, 20093 kPa	1435.5
353.15 K, 25086 kPa	1454.8
353.15 K, 30207 kPa	1474.1

CCC(C)O (configuration not stated) [butan-2-ol]
Conditions	speed of sound [m/s]
253.15 K, 100 kPa	1374.6
253.15 K, 5155 kPa	1400.3
253.15 K, 10194 kPa	1424.8
253.15 K, 15178 kPa	1448.1
253.15 K, 20139 kPa	1470.5
253.15 K, 25051 kPa	1491.9
253.15 K, 30449 kPa	1514.4
273.15 K, 100 kPa	1301.2
273.15 K, 5150 kPa	1329.2
273.15 K, 10187 kPa	1355.8
273.15 K, 15226 kPa	1381.1
273.15 K, 20096 kPa	1404.6
273.15 K, 25052 kPa	1427.7
273.15 K, 30040 kPa	1450
293.15 K, 102 kPa	1229.1
293.15 K, 5048 kPa	1258.9
293.15 K, 10078 kPa	1287.7
293.15 K, 15045 kPa	1314.6
293.15 K, 20093 kPa	1340.9
293.15 K, 25164 kPa	1366
293.15 K, 29995 kPa	1389
313.15 K, 100 kPa	1156.3
313.15 K, 5081 kPa	1189.2
313.15 K, 10051 kPa	1220
313.15 K, 15034 kPa	1249.2
313.15 K, 20050 kPa	1277.2
313.15 K, 25148 kPa	1304.3
313.15 K, 30041 kPa	1329.3
333.15 K, 101 kPa	1081.4
333.15 K, 5111 kPa	1117.8
333.15 K, 10069 kPa	1151.4
333.15 K, 15039 kPa	1183
333.15 K, 20109 kPa	1213.5
333.15 K, 25122 kPa	1242.1
333.15 K, 30086 kPa	1269.2
353.15 K, 119 kPa	1003.7
353.15 K, 5050 kPa	1043.6
353.15 K, 10149 kPa	1081.5
353.15 K, 15213 kPa	1116.5
353.15 K, 20040 kPa	1147.9
353.15 K, 25218 kPa	1179.7
353.15 K, 30032 kPa	1207.7

CC(C)O [propan-2-ol]
Conditions	speed of sound [m/s]
253.15 K, 99 kPa	1301
253.15 K, 5138 kPa	1328.8
253.15 K, 10106 kPa	1354.9
253.15 K, 15136 kPa	1380
253.15 K, 20143 kPa	1404
253.15 K, 25229 kPa	1427.5
253.15 K, 30036 kPa	1448.9
273.15 K, 100 kPa	1227.9
273.15 K, 5275 kPa	1258.8
273.15 K, 10173 kPa	1286.4
273.15 K, 15164 kPa	1313.3
273.15 K, 20289 kPa	1339.6
273.15 K, 25102 kPa	1363.3
273.15 K, 30264 kPa	1387.7
293.15 K, 100 kPa	1157.4
293.15 K, 5085 kPa	1189.7
293.15 K, 10183 kPa	1220.8
293.15 K, 15273 kPa	1250.2
293.15 K, 20239 kPa	1277.4
293.15 K, 25220 kPa	1303.6
293.15 K, 30278 kPa	1328.9
313.15 K, 100 kPa	1087.2
313.15 K, 5177 kPa	1123.1
313.15 K, 10104 kPa	1155.7
313.15 K, 15187 kPa	1187.5
313.15 K, 20126 kPa	1216.6
313.15 K, 25138 kPa	1244.7
313.15 K, 30110 kPa	1271.1
333.15 K, 100 kPa	1016
333.15 K, 5048 kPa	1054.5
333.15 K, 10038 kPa	1090.6
333.15 K, 15065 kPa	1124.6
333.15 K, 20102 kPa	1156.5
333.15 K, 25093 kPa	1186.4
333.15 K, 30014 kPa	1214.4
353.15 K, 100 kPa	940.5
353.15 K, 5080 kPa	983.88
353.15 K, 10091 kPa	1023.9
353.15 K, 15114 kPa	1060.8
353.15 K, 20132 kPa	1095.3
353.15 K, 25164 kPa	1127.6
353.15 K, 30380 kPa	1159.2
